The values below come from US11840530B2, “Selective EP4 receptor antagonistic substance for treatment of cancer” (AskAt Inc., priority 2009, dated 2023).

One experiment concerns breast cancer cells. The following applies: non-patent literature 5; cited from earlier work.
Experiment [1] deals with gastric tumor of K19-Wnt1/C2mE mice. Kind of experiment: Spontaneous gastric cancer model mice, tumor size by X-ray CT. Conditions: for sizes of tumors by X-ray CT (relative mean tumor area, FIG. 3): per os 3 mg/kg and 30 mg/kg once a day for five weeks, vs vehicle. The class given is in vivo, mouse. The procedure: Among human gastric cancer patients, Wnt up-regulation is observed in 30% to 50%, and induction of COX-2 is observed in more than 70%. Therefore, the K19-Wnt1/C2mE is positioned as a mouse model which extrapolates human gastric cancer in terms of molecular mechanism (Nature Review Cancer, Volume 7, Pages 645-658, 2007).
The experiment was conducted using five spontaneous gastric cancer model mice at 50 weeks old (K19-Wnt1/C2mE mice). The mice develop large tumors in stomach at 50 weeks old, and the size of tumor can be measured with X-ray CT. The sizes of tumors were measured with X-ray CT before administration and at week 1, week 2, and week 3 after administration, and the sizes of tumors were compared. Compound A was continuously administered at a dose of 100 mg/kg twice a day for three weeks. A methyl cellulose was used as a vehicle.
Experiment was conducted using six gastric cancer model mice at 46 to 68 weeks old (K19-Wnt1/C2mE mice). Compound B was continuously administered per os at a dose of 3 mg/kg (n=2), 30 mg/kg (n=2) and vehicle control (n=2) once a day for five weeks. The measurements of tumor sizes were conducted in the same manner as example 1. It was confirmed by X-ray CT scanning that the sizes of tumors increased in a time-dependent manner during test period in two vehicle controls. […] In the FIG. 3, a relative value of the mean tumor area after treatment to that before treatment (0 w) set to 100 is shown with time. Solid square (▪) and solid diamond (♦) represent control model mice. Dotted triangle (▴) and dotted cross (X) represent model mice each administered compound B at a dose of 3 mg/kg. Solid star (*) and solid circle (●) represent model mice each administered compound B at a dose of 30 mg/kg.

The test system of experiment [2] is colon26 (cell line derived from mouse colon cancer). The experiment in a line: colon26 subcutaneously implanted to CD2F1 mice, tumor weight. Conditions: vs vehicle. The class given is in vivo. The method, then:
A cell line derived from mouse colon cancer, colon26, was subcutaneously implanted to CD2F1 mice. (According to the method described in Int. J. Cancer, Volume 121, Pages 878-883, 2007, this model extrapolates the colon cancer development and growth in terms of molecular mechanism.) When the mean tumor weight reached 100 mg, vehicle (n=10), compound B once a day at a dose of 30 mg/kg (n=10), or compound C twice a day at a dose of 200 mg/kg (n=10) was administered for 20 days. The tumor weight was calculated as (major axis)×(minor axis)^2×0.5 using the measured values. […] In FIG. 4, solid square (▪), solid triangle (▴), and solid circle (●) represent a group administered vehicle (control), a group administered compound B, and a group administered compound C, respectively.

The test system of experiment [3] is LL/2 (cell line derived from mouse lung cancer). The experiment in a line: LL/2 subcutaneously implanted to C57BL/6 mice, tumor weight. The class given is in vivo. The following applies: vs vehicle. The method, then: A cell line derived from mouse lung cancer, LL/2, was subcutaneously implanted to C57BL/6 mice. (According to the method described in Cancer Research. Volume 58, Pages 2583-2587, 1998, this model extrapolates the lung cancer development and growth.) When the mean tumor weight reached 100 mg, vehicle (n=10), compound B once a day at a dose of 0.3 mg/kg (n=10), or compound C twice a day at a dose of 10 mg/kg (n=10) was administered for 25 days. The tumor weight was calculated as (major axis)×(minor axis)^2×0.5 using the measured values. […] In FIG. 5, solid square (▪), solid triangle (▴), and solid circle (●) represent a group administered vehicle (control), a group administered compound B, and a group administered compound C, respectively.

In experiment [4] the test system is colon cancer cell (HCA-7). The following applies: non-patent literature 4; cited from earlier work.
The subject of experiment [5] is intestinal polyp in APC gene knockout mice. Conditions: non-patent literature 6; cited from earlier work.
Experiment [6] relates to azoxymethane-induced colon aberrant crypt foci. The following applies: non-patent literature 6; cited from earlier work.

For `O=C(O)CC/C=C\CC[C@H]1[C@H](N2CCOCC2)C(=O)C[C@H]1OCc1ccc(-c2ccccc2)cc1` [AH23848], the “metastasis of breast cancer cells” value in the experiment with breast cancer cells is on record as “metastasis suppression”.
`C[C@H](NC(=O)c1cc(Cl)ccc1Oc1ccc(F)cc1)c1ccc(C(=O)O)cc1` [Compound A, 4-((1S)-1-{[5-chloro-2-(4-fluorophenoxy)benzoyl]amino}ethyl)benzoic Acid]: the “histological analysis of excised tissues after the treatment” value in experiment [1] (100 mg/kg twice a day for three weeks, visual observation) is listed as “disappearance of irregular glandular branching in tumor epithelium”. The “relative tumor volume compared with untreated mice (FIG. 2)” value in experiment [1] (100 mg/kg twice a day for three weeks, vs 55 to 60 week old untreated K19-Wnt1/C2mE mice (n=7)) is “tumor was shrunk effectively”. Further, the “tumor mass in CT images at three weeks post-administration” value in experiment [1] (100 mg/kg twice a day, all the five mice) is listed as “tumor mass almost completely disappeared”. Moreover, in experiment [1] (100 mg/kg twice a day, two individuals with particularly large tumor before administration), the “tumor size in the first week (X-ray CT)” value is given as “remarkable reductions of the tumor size”.
As for `C[C@H](NC(=O)c1cc(Cl)cnc1Oc1cccc(F)c1)c1ccc(C(=O)O)cc1` [Compound B], the “sizes of tumors by X-ray CT (relative mean tumor area, FIG. 3)” value in experiment [1] is on record as “reduced in a dose-dependent manner”. Further, the “tumor size by X-ray CT at a dose of 3 mg/kg” value in experiment [1] (per os 3 mg/kg once a day for five weeks) was “effective reduction of tumor size”. Moreover, in experiment [1] (per os once a day for five weeks, compared with vehicle control group), the “tumor lesions in autopsy” value is reported as “remarkable shrinkages of tumor lesions”. Further, the “tumor size (calculated tumor weight, FIG. 4)” value in experiment [2] (30 mg/kg once a day for 20 days) is on record as “Remarkable reductions of tumor size”. The “tumor size (calculated tumor weight, FIG. 5)” value in experiment [3] (0.3 mg/kg once a day for 25 days) is “Remarkable reductions of tumor size”.
`CCc1nc2c(C)nc(C)cc2n1-c1ccc(CCNC(=O)NS(=O)(=O)c2ccc(C)cc2)cc1` [Compound C, 3-[2-(4-{2-ethyl-4,6-dimethyl-1H-imidazo[4,5-c]pyridin-1-yl}phenyl)ethyl]-1-[(4-methylbenzene)sulfonyl]urea]: the “sizes of tumors by X-ray CT (relative mean tumor area, FIG. 3)” value in experiment [1] is “tumor size dramatically reduced”. Moreover, the “tumor size (calculated tumor weight, FIG. 4)” value in experiment [2] (200 mg/kg twice a day for 20 days) is “Remarkable reductions of tumor size”. The “tumor size (calculated tumor weight, FIG. 5)” value in experiment [3] (10 mg/kg twice a day for 25 days) is “Remarkable reductions of tumor size”.
Take `CCCCc1nn(-c2ccccc2C(F)(F)F)c(=O)n1Cc1ccc(-c2ccccc2S(=O)(=O)NC(=O)c2sccc2C)cc1` [L-161,982]: the “growth of colon cancer cell” value in experiment [4] is “growth inhibition”.
Consider `CC(C(=O)Nc1ccccc1Cc1ccccc1C(=O)O)c1cccc2ccccc12` (centres unmarked) [ONO-AE2-227], for which the “formation of intestinal polyp” value in experiment [5] is recorded as “reduced formation of intestinal polyp”. For the same compound, the “formation of azoxymethane-induced colon aberrant crypt foci” value in experiment [6] is listed as “reduced formation”.
As to `CC(C(=O)Nc1cc(C#N)ccc1CCCC(=O)O)c1ccc(F)c2ccccc12` (centres unmarked) [ONO-AE3-208], in the experiment on breast cancer cells, the “metastasis of breast cancer cells” value is “metastasis suppression”.
